Laboratory results from patent US12195457B2, “Aromatic ring derivative as immunoregulation and preparation method and application of aromatic ring derivative” (SHANGHAI JEMINCARE PHARMACEUTICALS CO., LTD, priority 2018, dated 2025).

Experiments:
[1] = In vivo pharmacokinetics in rats, intravenous injection and oral administration; design: species or system Sprague Dawley rats; settings: rat; for AUC(0-inf) / clearance / half-life / Cmax: male, Sprague-Dawley, plasma
Protocol: In this experimental embodiment, in vivo pharmacokinetic evaluation was performed in rats by intravenous injection and oral administration.
Experimental methods and conditions: male Sprague Dawley rats were given the test compounds 1 mg/kg (solvent 5% DMSO/15% Solutol/80% Saline) by intravenous injection and 1 mg/kg (solvent 0.5% MC) by oral gavage respectively. 5 min, 15 min, 30 min, 1 hr, 2 hr, 4 hr, 6 hr, 8 hr, 24 hr after administration, blood was collected from submandibular vein, each sample was collected about 0.20 mL, and heparin sodium was used for anti coagulation. After collection, the sample was placed on ice, and the blood was centrifuged to be measured within one hour. Blood drug concentration in plasma was detected by liquid chromatography tandem mass spectrometry (LC/MS/MS), and the pharmacokinetic parameters were calculated by Phoenix WinNonlin software.

[2] = test system: peripheral blood lymphocyte (PBL) count; test: Peripheral lymphocyte lowering (PLL) in mice; format: in vivo, C57BL/6j mice; settings: Mus musculus, oral, 5 hours after administration, read-out: IC50 of peripheral blood lymphocyte (PBL) count decrease
Protocol: (§1) Mice: SPF female C57BL/6j mice, weighing 19-22 g. Rats: Male Sprague-Dawley rats, weighing 200-220 g. Feeding environment: the temperature was 23±2° C., the relative humidity was 40-70%, and the lighting time was at 7:00 in the morning to 7:00 in the evening; animals were freely fed with common feed and sterilized drinking water. All animal experiments were approved by the animal ethics committee; all animal experiments were carried out in accordance with the relevant SOP requirements of animal room. Animals were reared adaptively for one week before the experiment.
(§2) Animals were administered orally with a volume of 10 mL/kg. The vehicle for administration was 0.5% DMSO+0.5% MC. Animals were anesthetized with isoflurane 5 hours after administration, and 100-150 μL of peripheral blood was collected through the eye socket in EP tubes, placed on ice. The lymphocyte count of blood analysis was detected by XT-2000i automated hematology analyzer within 30 minutes. Another 20 μL of whole blood was diluted with 40 μL of DDW, and snap frozen in liquid nitrogen, the concentration of the compounds in blood was detected.

[3] = test system: peripheral blood lymphocyte (PBL) count; test: Peripheral lymphocyte lowering (PLL) in rats; format: in vivo, Sprague-Dawley rats; settings: Rattus norvegicus, oral, 5 hours after administration, read-out: IC50 of peripheral blood lymphocyte (PBL) count decrease
Protocol: as §1, §2

[4] = test system: experimental autoimmune encephalomyelitis (EAE); test: Experimental autoimmune encephalomyelitis (EAE) in mice; format: in vivo, C57BL/6J mice; settings: days 5-37
Protocol: Female C57BL/6J mice were immunized with MOG35-55 antigen emulsion. 2 hours after immunization, each animal was injected with 200 ng/100 μL PTX solution intraperitoneally. After 24 hours (the second day), the same dose of PTX solution was injected once again. On the fifth day, the animals in each group began to administer the drug, and each group was given the drug by gavage, with a dosage of 10 mL/kg, once a day for 33 consecutive days (days 5-37). During the experiment, general clinical observation was carried out twice a day, and the weight and EAE clinical scores were measured once a day after administration. The score was divided into five grades: (0. normal mice, no obvious disease; 1. tail weakness or hind limb weakness; 2. tail weakness and hind limb weakness; 3. hemiplegia of hind limbs; 4. complete paralysis of hind limbs; 5, died of EAE or euthanasia in near-death state).

[5] = test system: DNBS-induced colitis; test: Rat colitis model induced by DNBS; format: in vivo, Wistar rats; settings: DNBS rats
Text: The Wistar rat ulcerative enteritis model induced by DNBS (2, 4-dinitrobenzenesulfonic acid) is also one of the commonly used models for development of enteritis drugs. DNBS combines with intestinal tissue protein to form complete antigen, which increases vascular permeability, activates inflammatory transmitters, increases fibrinolytic activity, and makes the body produce immune response against intestinal mucosa, resulting in persistent ulcer and inflammation of intestinal mucosa in rats.
The experimental animals were Wistar rats, male, 5-6 weeks old, 140-160 g. The animals were kept in SPF room with a room temperature of 20-26° C., a humidity of 40-70%, fluorescent lamp lighting, 12 hours of lighting (08:00-20:00) and 12 hours of no lighting, with 2-5 animals in each cage (same administration group). […]
Drug treatment: 4 hours after modeling, animals were given with different concentrations of drugs or 0.5% methylcellulose by gavage, 10 mL/kg, once a day for 7 consecutive days. […] After administration, the animals were euthanized, colon tissues were collected, colon length, colon weight and ulcer area were measured, and colon injury in rats was evaluated macroscopically, so as to evaluate the therapeutic effect of the tested drugs on DNBS-induced inflammatory colitis model in rats.

[6] = cited from earlier work
[7] = intravenous administration 1 mg/kg

SMILES | AUC(0-inf) [1, 7] [ng·h/mL] | clearance [1, 7] [mL/min/kg] | half-life [1, 7] [h] | AUC(0-inf) ([1]; oral administration 1 mg/kg) [ng·h/mL] | Cmax ([1]; oral administration 1 mg/kg) [ng/mL] | half-life ([1]; oral administration 1 mg/kg) [h] | F ([1]; oral administration 1 mg/kg) [%] | IC50 [2] [nM] | IC50 [3] [nM] | disease symptoms (EAE clinical score) ([4]; 1 mg/kg by gavage once a day) | area of colonic ulcer ([5]; 0.2 mg/kg by gavage once a day for 7 days) | area of colonic ulcer ([5]; 1 mg/kg by gavage once a day for 7 days) | disease symptoms (EAE clinical score) ([4]; 5 mg/kg by gavage once a day) | half-life in human body [6] [h]
O=C(O)CCc1[nH]c2ccc(OCc3ccc(C4CCCC4)c(C(F)(F)F)c3)cc2c1Cl [Compound 13] | 4750 | 3.5 | 2.8 | 1190 | 184 | 3.9 | 17.4 | 18.5 | 4.1 | significantly reduce |  |  |  | 
Cc1c(CCC(=O)O)[nH]c2ccc(OCc3ccc(C4CCCC4)c(C(F)(F)F)c3)cc12 [Compound 16] | 4140 | 4.17 | 1.4 | 649 | 162 | 2.9 | 13.3 | 24.7 | 5.3 | significantly reduce | significantly reduce | significantly reduce | significantly reduce | 
CCCCCCCCc1ccc(CCC(N)(CO)CO)cc1 [FTY720, Fingolimod] |  |  |  |  |  |  |  |  |  |  |  |  |  | 140 to 220
